Here are results for 8 compounds from US8268863B2 (priority 2007, dated 2012).

Structures are written as SMILES. A value given as a limit tells only on which side of the number the result lay.

Experiment [1] has as its target T1, human mu opioid receptor (Homo sapiens, UniProt P35372).
T1 construct: host or cells: CHO-K1
As to the kind of experiment: Radioligand binding assay, human mu opioid receptor. The settings on record: [3H]-Diprenorphine displacement, membranes of CHO-K1 cells; read-out: pKi at the human mu opioid receptor (converted).

In experiment [2] the target is T1, human mu opioid receptor. As to the kind of experiment: Human mu GTP-Eu nucleotide exchange assay (agonist mediated activation). It is filed as biochemical. The settings on record: bound GTP-Eu relative to DAMGO (IA=100), CHO-K1 membranes expressing human mu opioid receptor; read-out: intrinsic activity (IA).

T1 sequence (P35372 whole entry): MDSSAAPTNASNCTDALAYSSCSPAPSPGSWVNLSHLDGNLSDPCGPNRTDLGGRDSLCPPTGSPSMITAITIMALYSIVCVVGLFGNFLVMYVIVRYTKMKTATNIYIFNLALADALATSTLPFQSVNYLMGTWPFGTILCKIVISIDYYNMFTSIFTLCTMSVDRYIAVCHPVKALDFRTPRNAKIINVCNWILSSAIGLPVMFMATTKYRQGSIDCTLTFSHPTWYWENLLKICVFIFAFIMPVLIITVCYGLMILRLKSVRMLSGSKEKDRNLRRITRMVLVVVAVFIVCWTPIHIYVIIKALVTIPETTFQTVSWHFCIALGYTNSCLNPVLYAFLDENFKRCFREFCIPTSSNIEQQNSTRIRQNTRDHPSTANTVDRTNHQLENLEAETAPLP

For `NC(=O)CCC(=O)NC(CC1CCCCC1)CN1[C@@H]2CC[C@H]1C[C@@H](c1cccc(O)c1)C2` (stereo partly drawn) [Example 3, N-{1-cyclohexylmethyl-2-[3-endo-(3-hydroxy-phenyl)-8-azabicyclo[3.2.1]oct-8-yl]ethyl}succinamide], in experiment [1], the Ki was 0.126 nM. Besides, the Emax in experiment [2] amounted to 3%.

For the compound `Cc1ccc(S(=O)(=O)NC(CC2CCCCC2)CN2[C@@H]3CC[C@H]2C[C@@H](c2cccc(O)c2)C3)cc1` (stereo partly drawn) [Example 5, N-{1-cyclohexylmethyl-2-[3-endo-(3-hydroxy-phenyl)-8-azabicyclo[3.2.1]oct-8-yl]ethyl}-4-methyl-benzenesulfonamide], the Ki in experiment [1] is 0.794 nM. The Emax in experiment [2] turned out to be 2%.

Consider `O=C(NC(CC1CCCCC1)CN1[C@@H]2CC[C@H]1C[C@@H](c1cccc(O)c1)C2)C1CCCCC1` (stereo partly drawn) [Example 1, cyclohexanecarboxylic acid {1-cyclohexylmethyl-2-[3-endo-(3-hydroxyphenyl)-8-azabicyclo[3.2.1]oct-8-yl]-ethyl}amide], for which the Ki in experiment [1] was 0.0631 nM. Also, the Emax in experiment [2] is -9%.

For the compound `O=C(NC(CCc1ccccc1)CN1[C@@H]2CC[C@H]1C[C@@H](c1cccc(O)c1)C2)c1ccccc1` (some centres unmarked) [Example 76], the Emax in experiment [2] was at least 30%.

Take `O=C(CO)NC(CC1CCCCC1)CN1[C@@H]2CC[C@H]1C[C@@H](c1cccc(O)c1)C2` (stereo partly drawn) [Example 2, N-{1-cyclohexylmethyl-2-[3-endo-(3-hydroxy-phenyl)-8-azabicyclo[3.2.1]oct-8-yl]ethyl}-2-hydroxyacetamide]: the Ki in experiment [1] is 0.0631 nM. In addition, the Emax in experiment [2] came to 24%.

Turning to `CS(=O)(=O)NC(CCN1[C@@H]2CC[C@H]1C[C@@H](c1cccc(C(N)=O)c1)C2)c1ccccc1` (some centres unmarked) [Example 104], the Emax in experiment [2] was at least 30%.

As to `O=C(NCC1CCCCC1)NC(CC1CCCCC1)CN1[C@@H]2CC[C@H]1C[C@@H](c1cccc(O)c1)C2` (stereo partly drawn) [Example 4, 1-cyclohexylmethyl-3-{1-cyclohexylmethyl-2-[3-endo-(3-hydroxyphenyl)-8-azabicyclo[3.2.1]oct-8-yl]ethyl}urea], in experiment [1], the Ki is 0.1 nM. For the same compound, in experiment [2], the Emax was -3%.

For the compound `CC(C)C[C@H](NC(=O)C(Cc1ccccc1)CN1[C@@H]2CC[C@H]1C[C@@H](c1cccc(C(N)=O)c1)C2)C(N)=O` (mixture of isomers) [Example 6, 3-endo-{8-[(S)-2-(S)-1-carbamoyl-3-methyl-butylcarbamoyl)-3-phenylpropyl]-8-azabicyclo[3.2.1]oct-3-yl}benzamide and 3-endo-{8-[(R)-2-((S)-1-carbamoyl-3-methylbutylcarbamoyl)-3-phenyl-propyl]-8-azabicyclo[3.2.1]oct-3-yl}benzamide], in experiment [1], the Ki is 0.0631 nM. For the same compound, the Emax in experiment [2] was -7%.
